# Assay results as given in patent US5506354A, “Imidazolylpiperazinyl steroids” (The Upjohn Company, priority 1992, dated 1996).
# Counter-ions that a name gives are not always drawn.
# Assays:
# [1] = tested on: conjugated diene formation; experiment: Conjugated Diene Formation Assay (rat brain synaptosomes); format: biochemical; details: 100 μM (or less) of drug; active = inhibition by 50% or more
# Text: The formation of conjugated dienes as assayed by Braughler, J. Neurochem., 44, 1282 (1985), Bucher, Fund. Applied Tox., 3, 222 (1983) and Tein, Arch. Biochem. Biophy., 216, 142 (1982) is a standard pharmacological laboratory procedure useful for identifying compounds which inhibit lipid peroxidation. Since lipid peroxidation is involved in the pathophysiology of central nervous system trauma, compounds which inhibit conjugated diene formation are useful in treating the conditions listed below.
# 44, 1282 (1985). Synaptosomal suspension (10 μl) is added to 1 ml of physiological (normal) saline containing 1% Lubrol PX (Sigma Chemical Co. St. Louis, Mo.), 100 μM hydrogen peroxide and 100 μM (or less) of the drug to be tested prepared in either absolute ethanol or water depending upon solubility. The reaction is started by the rapid addition of 200 μM ferrous ammonium sulfate prepared in argon-purged water. The sample is rapidly mixed and the change in absorbence at 232 nm is followed in a Gifford Response Spectrophotometer equipped with a rapid sampler. Due to the rapidity of the reaction, rapid addition of the iron, rapid mixing and sampling are obligatory to the accuracy of the assay. For best results absorbence readings of one/sec should be started within 5 sec following the addition of iron. The initial linear rate of absorbence change during the first 30 sec of reaction are compared with the rate of a reaction containing all reagents except synaptosomes. The difference in rates is the rate of conjugated diene formation. Rates with drug are compared to rates obtained in the absence of drug and the % inhibition is calculated. A compound that inhibits conjugated diene formation by 50% or more is considered to be "active".
# angiogenesis = experiment: Chick embryo assay of Folkman (inhibition of angiogenesis / tumor growth); format: in vivo; details: 50 μg/10 μl in the presence of heparin
# Description: According to this procedure compounds which are considered to be "active" (i.e. antiangiogenic) give an avascular zone of 4 mm or greater in some embryos when tested at 50 μg/10 μl in the presence of 50 μg/10μ of heparin.
# interleukin-1 = experiment: Inhibition of interleukin-1 induced T cell proliferation; format: cell-based; details: for inhibition of interleukin 1 (activity in words): active = greater than 30% at 10^-6 M
# Text: The inhibition of interleukin-1 induced T cell proliferation assay, Proc. Nat. […] Since people with arthritis make excess interleukin 1, compounds which inhibit the activity of interleukin 1 are useful in the treatment of arthritis. According to this procedure compounds which inhibit the activity of interleukin 1 greater that 30% at 10^-6 M are considered to be "active".
# arachidonic acid = experiment: Arachidonic Acid Antagonism Assay (AAAA), LD50 of sodium arachidonate; format: in vivo, Charles River male CF-1 mice; details: for arachidonic acid antagonism (activity in words): test compound IV 15 min before sodium arachidonate, LD50 outside 95% confidence interval of control
# Description: Since these metabolites contribute to the pathological problems associated with stroke, spinal trauma and head injury, compounds which antagonize arachidonic acid are useful in treating stroke, spinal trauma and head injury.
# While not necessary to determine arachidonic acid antagonism, the above assay has been modified as follows: Charles River male CF-1 mice weighing 18-22 g are treated IV with the test compound dissolved in 1.0% Tween-80 and 0.1% hydrochloric acid in distilled water, 0.2 ml total volume. Fifteen minutes later sodium arachidonate (90% pure) in physiological (normal) saline is injected into the tail vein. The LD50 is measured using the Spearman-Karber method with a log dose interval of 0.05 (N=6). Compounds which elevate the LD50 outside of the 95% confidence interval of the control LD50 are considered to be "active".
# MDA formation = experiment: Malonyldialdehyde (MDA) Formation Assay (rat brain synaptosomes); format: biochemical; details: 10 min at 37°, pH 7.0; active = 50% or more at 200 μM or less
# Description: Since lipid peroxidation is involved in the pathophysiology of center nervous system trauma, compounds which inhibit MDA formation are useful in treating the conditions listed below.
# While not necessary to determine MDA formation, the above assays have been modified as follows: rat brain synaptosomes are prepared as described in the Example about the conjugated diene assay, except that the final wash of the synaptosomes and final suspension are in physiological (normal) saline in which the pH has been adjusted to 7.0. The synaptosomes are incubated for 10 min at 37° in physiological (normal) saline pH 7.0 (total volume=100 ul) containing; 10 ul synaptosomal suspension, 10% DMSO plus or minus drug, 150 uM Fe^+++ and 50 uM Fe++. The incubation is started by the rapid addition of iron to the otherwise complete reaction. The iron solutions are prepared fresh as ferric chloride and ferrous ammonium sulfate in argon-purged water. Following the 10 min incubation, the reaction is stopped by the addition of 500 ul ice-cold 12% trichloroacetic acid prepared in 0.5N hydrochloric acid. Water (300 ul) is then added along with 100 ul of freshly prepared thiobarbituric acid (3.3% in 0.5N sodium hydroxide) and 10 ul of 5 mM desferrioxamine. The sample is then heated in a boiling water bath for 20 minutes. The samples are cooled and centrifuged for 15 minutes at 1500×g and the absorbence of the supernatant fraction is read at 532 nm. The % inhibition of MDA formation is calculated by dividing the absorbance of sample containing drug by the absorbence of samples incubated without drug. Reaction blanks are samples incubated in the absence of iron. A compound that inhibits MDA formation by 50% or more at a concentration of 200 μM or less is considered "active".
SMILES,inhibition of conjugated diene formation (activity in words) [1],inhibition of MDA formation (activity in words) (MDA formation),other results
"C[C@]12CCC(=O)C=C1CC[C@@H]1C2=CC[C@@]2(C)[C@H]1CC[C@]2(O)C(=O)CN1CCC(O)(c2ccc(C(F)(F)F)cc2)CC1 [Example 5, 17α-Hydroxy-21-[4-hydroxy-4-(4-trifluoromethyl)-phenyl-1-piperidinyl]-pregna-4,9(11)-diene-3,20-dione]",demonstrate such activity,–,–
"C[C@H]1C[C@@H]2[C@H]([C@@H](O)C[C@@]3(C)[C@H]2CC[C@]3(O)C(=O)CN2CCN(c3ccccn3)CC2)[C@@]2(C)C=CC(=O)C=C12 [Example 21, 11β,17α-dihydroxy-6α-methyl-21-[4-(2-pyridinyl)-1-piperazinyl]pregna-1,4-diene-3,20-dione]",–,–,% of Embryos with 4 mm or Greater Avascular Zone (angiogenesis): 91%; inhibition of angiogenesis (activity in words) (angiogenesis): demonstrate inhibition of angiogenesis; inhibition of interleukin 1 (activity in words) (interleukin-1): demonstrate inhibition of interleukin 1; arachidonic acid antagonism (activity in words) (arachidonic acid): demonstrate arachidonic acid antagonism
"C[C@]12CCC(=O)C=C1CC[C@@H]1C2=CC[C@@]2(C)[C@H]1CC[C@]2(O)C(=O)CN1CCN(c2cccc(N3CCCC3)n2)CC1 [Example 62, 17α-hydroxy-21-[4-[6-(1-pyrrolidinyl)-2-pyridinyl]-1-piperazinyl] pregna-4,9(11)-diene-3,20-dione (E)-2-butenedioate (1:1) salt]",–,demonstrate such activity,"% of Control LD50 100 mg/kg (arachidonic acid; 100 mg/kg, test compound IV): 138%; arachidonic acid antagonism (activity in words) (arachidonic acid): demonstrate arachidonic acid antagonism"
"C[C@@H]1C[C@H]2[C@@H]3CCC4=CC(=O)C=C[C@]4(C)[C@H]3[C@H](O)C[C@]2(C)[C@H]1C(=O)CN1CCN(c2cc(N3CCCC3)nc(N3CCCC3)n2)CC1 [Example 84, 11α-hydroxy-16α-methyl-21-[4-[2,6-bis(1-pyrrolidinyl)-4-pyrimidinyl]-1-piperazinyl]pregna-1,4-diene 3,20-dione]",demonstrate such activity,–,inhibition of interleukin 1 (activity in words) (interleukin-1): demonstrate inhibition of interleukin 1
"C[C@@H]1C[C@H]2[C@@H]3CCC4=CC(=O)C=C[C@]4(C)C3=CC[C@]2(C)[C@H]1C(=O)CN1CCN(c2cc(N3CCOCC3)nc(N3CCOCC3)n2)CC1 [Example 86, 16α-methyl-21-[4-[2,6-bis(4-morpholino)-4-pyrimidinyl]-1-piperazinyl]-pregna-1,4,9(11)-triene-3,20-dione]",demonstrate such activity,demonstrate such activity,"inhibition of angiogenesis (activity in words) (angiogenesis): demonstrate inhibition of angiogenesis; inhibition of interleukin 1 (activity in words) (interleukin-1): demonstrate inhibition of interleukin 1; % Inhibition at 10^-6 M (interleukin-1; interleukin 1, 10^-6 M): 84%"
"C[C@]12CCC(=O)C=C1CC[C@@H]1C2=CC[C@]2(C)[C@@H](CCN3CCN(c4cc(N5CCCC5)nc(N5CCCC5)n4)CC3)CC[C@@H]12.Cl [Example 104, 21-[4-(2,6-Bis(1-pyrrolidinyl)-4-pyrimidinyl)-1-piperazinyl]pregna-4,9(11)-dien-3-one hydrochloride]",–,demonstrate such activity,inhibition of angiogenesis (activity in words) (angiogenesis): demonstrate inhibition of angiogenesis
"CC(CN1CCN(c2cc(N3CCCC3)nc(N3CCCC3)n2)CC1)[C@H]1CC[C@H]2[C@@H]3CCC4=CC(=O)CC[C@]4(C)[C@H]3CC[C@]12C.Cl (stereo partly shown) [Example 107, 20-Methyl-21-[4-(2,6-bis(1-pyrrolidinyl)-4-pyrimidinyl)-1-piperazinyl]pregna-4-ene-3-one hydrochloride]",–,demonstrate such activity,–
"C[C@@]12C(=CC(=O)C[C@@H]1C#N)CC[C@@H]1C2=CC[C@]2(C)[C@@H](CCN3CCN(c4cc(N5CCCC5)nc(N5CCCC5)n4)CC3)CC[C@@H]12.Cl.Cl.Cl.O [Example 110, 21-[4-(2,6-Bis(1-pyrrolidinyl)4-pyrimidinyl)-1-piperazinyl]-1α-cyanopregna-4,9(11)-dien-3-one-trihydrochloride, hydrate]",–,demonstrate such activity,–
"C[C@]12C=CC(=O)C=C1CC[C@@H]1C2=CC[C@]2(C)[C@@H](C(=O)CN3CCN(c4cc(N5CCCC5)nc(N5CCCC5)n4)CC3)CC[C@@H]12.Cl.Cl [Example 111, 21-[4-(2,6-Bis(1-pyrrolidinyl)-4-pyrimidinyl)-1-piperazinyl]pregna-1,4,9(11)-triene-3,20-dione dihydrochloride]",demonstrate such activity,–,–
"CC(CN1CCN(c2cc(N3CCCC3)nc(N3CCCC3)n2)CC1)[C@H]1CC[C@H]2[C@@H]3CCC4=CC(=O)C=C[C@]4(C)[C@H]3CC[C@]12C.CS(=O)(=O)O.O (stereo partly shown) [Example 112, 21-[4-(2,6-Bis(1-pyrrolidinyl)-4-pyrimidinyl)-1-piperazinyl]-20-methylpregna-1,4-dien-3-one methanesulfonate, hydrate]",demonstrate such activity,–,–
"C[C@H]1C[C@H]2[C@@H]3C[C@H](F)C4=CC(=O)CC[C@]4(C)C3=CC[C@]2(C)[C@@]1(O)C(=O)CN1CCN(c2cc(N3CCCC3)nc(N3CCCC3)n2)CC1 [Example 118, 6αa-Fluoro-17α-hydroxy-16β-methyl-21-[4-[2,6-bis(1-pyrrolidinyl)-4-pyrimidinyl]-1-piperazinyl]-pregna-4,9(11)-diene-3,20-dione dihydrochloride]",–,demonstrate such activity,–
"C[C@@H]1C[C@H]2[C@@H]3CCC4=CC(=O)C=C[C@]4(C)[C@H]3CC[C@]2(C)[C@H]1C(=O)CN1CCN(c2cc(N3CCCC3)nc(N3CCCC3)n2)CC1.Cl.Cl [Example 121, 16α-Methyl-21-[4-[2,6-bis(1-pyrrolidinyl)-4-pyrimidinyl]-1-piperazinyl]-pregna-1,4-diene-3,20-dione dihydrochloride]",–,demonstrate such activity,–
"COc1ccc2c(c1)CC[C@@H]1[C@@H]2CC[C@@]2(C)[C@H]1CC[C@]2(O)C(=O)CN1CCN(c2cc(N3CCCC3)nc(N3CCCC3)n2)CC1 [Example 125, 3,17α-Dihydroxy-21-[4-[2,6-bis(1-pyrrolidinyl)-4-pyrimidinyl]-1-piperazinyl]-19-norpregna-1,3,5(10)-trien-20-one 3-methyl ether (E)-2-butenedioate 1:1 salt]",–,demonstrate such activity,–
"C[C@]12CC[C@@H]3c4ccc(O)cc4CC[C@H]3[C@@H]1CC[C@]2(O)C(=O)CN1CCN(c2cc(N3CCCC3)nc(N3CCCC3)n2)CC1 [Example 129, 3,17α-Dihydroxy-21-[4-[2,6-bis(1-pyrrolidinyl)-4-pyrimidinyl]-1-piperazinyl]-19-norpregna-1,3,5(10)-trien-20-one (E)-2-butenedioate 1:1 salt]",–,demonstrate such activity,–
